# Legend:
# dopamine (DA) = assay: DA level and turnover rate of DA in rat striatum; format: in vivo; settings: 1 hr after 30 mg/kg s.c.
# Experimental: (§1) 11. The turnover rate of dopamine (TRDA), noradrenaline (TRNA) and serotonin (TR5 HT) was measured 1 hr after the injection of 30 mg/kg s.c. 2-methyl-thiazolo[4,5-c]quinoline-ethanesulphonate.
# [1] = Shuttle-box, acquisition of two-way conditioned avoidance reflex; format: in vivo
# Experimental: The acquisition of a two-way conditioned avoidance reflex (CAR) was analyzed in the shuttle-box during 5 consecutive days. […] It consists of six boxes, each is separated inside by a barrier with a small gate in the middle. […] They were given 100 trials per day. One trial consisted of 15 s intertrial interval, followed by 15 s CS. The last 5 s of CS overlapped the first s of US. At each learning session the number of CAR and intersignal reactions (IR) was automatically counted and evaluated by multiway analysis of variance (ANOVA).
# serotonin (5HT) = assay: 5HT level and turnover rate of 5HT in rat brain parts; format: in vivo; settings: 1 hr after 30 mg/kg s.c.
# Experimental: as §1
# [2] = Effect on basal metabolism (O2 consumption); format: in vivo, rats; settings: urethane 0.6 g/kg i.p., 30° C.
# Experimental: The O2 consumption of rats was measured by the method of Issekutz and Issekutz (1952) at constant temperature (30° C.).
# O2 consumption of the animals was expressed in ml/h and calculated for body surface, and given finally in ml/h/dm^2. Following injection of urethane and the basal O2 consumption was measured during 30 minutes. This was followed by the injection of the test substance and O2 consumption was registered immediately afterwards. The difference between the highest O2 consumption and the basal value was expressed in percent.
# O2 consumption of the animals was calculated according to the following equation: [formula] V=2000 cm^3 P=pressure fall (mmHg)
# T=period of measurement (h)
# O2 consumption was calculated for body surface and expressed as ml/dm^2 /h. Body surface was calculated on the basis of the "Diack" formula: […]
# [3] = Measurement of motility in the shuttle-box; format: in vivo; settings: 30-minute observation
# Experimental: The apparatus described in the shuttle-box test is used also for investigating the motility of animals. In case of motility experiment all the stimuli are switched off and the animals are allowed to move freely from one compartment of the box to the other. […] Significancy is calculated by Student's test for two means.
compound,measurement,setting,value
"Cc1nc2cnc3ccccc3c2s1 [B compound, 2-methyl-thiazolo[4,5-c]quinoline-ethanesulfonate]",DA level,dopamine (DA),9.14 ± 0.49 µg/g
same,TRDA (turnover rate of DA),dopamine (DA),1.4 ng/g/h
same,"acquisition of conditioned reflex, number of positive responses (F)","[1]; 10 mg/kg s.c., day 1",7.5
same,number of intersignal reactions (IR),"[1]; 10 mg/kg s.c., day 1",11.4
same,number of negative responses (-f),"[1]; 10 mg/kg s.c., day 1",76.0
same,"acquisition of conditioned reflex, number of positive responses (F)","[1]; 10 mg/kg s.c., day 2",20.2
same,number of intersignal reactions (IR),"[1]; 10 mg/kg s.c., day 2",9.1
same,number of negative responses (-f),"[1]; 10 mg/kg s.c., day 2",40.8
same,"acquisition of conditioned reflex, number of positive responses (F)","[1]; 10 mg/kg s.c., day 3",20.2
same,number of intersignal reactions (IR),"[1]; 10 mg/kg s.c., day 3",7.6
same,number of negative responses (-f),"[1]; 10 mg/kg s.c., day 3",29.3
same,"acquisition of conditioned reflex, number of positive responses (F)","[1]; 10 mg/kg s.c., day 4",17.8
same,number of intersignal reactions (IR),"[1]; 10 mg/kg s.c., day 4",4.5
same,number of negative responses (-f),"[1]; 10 mg/kg s.c., day 4",29.9
same,"acquisition of conditioned reflex, number of positive responses (F)","[1]; 10 mg/kg s.c., day 5",14.5
same,number of intersignal reactions (IR),"[1]; 10 mg/kg s.c., day 5",3.3
same,number of negative responses (-f),"[1]; 10 mg/kg s.c., day 5",37.5
same,"acquisition of conditioned reflex, number of positive responses (F)","[1]; 25 mg/kg s.c., day 1",8.7
same,number of intersignal reactions (IR),"[1]; 25 mg/kg s.c., day 1",12.4
same,number of negative responses (-f),"[1]; 25 mg/kg s.c., day 1",54.9
same,"acquisition of conditioned reflex, number of positive responses (F)","[1]; 25 mg/kg s.c., day 2",4.2
same,number of intersignal reactions (IR),"[1]; 25 mg/kg s.c., day 2",5.0
same,number of negative responses (-f),"[1]; 25 mg/kg s.c., day 2",67.4
same,"acquisition of conditioned reflex, number of positive responses (F)","[1]; 25 mg/kg s.c., day 3",8.9
same,number of intersignal reactions (IR),"[1]; 25 mg/kg s.c., day 3",9.2
same,number of negative responses (-f),"[1]; 25 mg/kg s.c., day 3",74.1
same,"acquisition of conditioned reflex, number of positive responses (F)","[1]; 25 mg/kg s.c., day 4",4.0
same,number of intersignal reactions (IR),"[1]; 25 mg/kg s.c., day 4",4.9
same,number of negative responses (-f),"[1]; 25 mg/kg s.c., day 4",80.1
same,"acquisition of conditioned reflex, number of positive responses (F)","[1]; 25 mg/kg s.c., day 5",2.5
same,number of intersignal reactions (IR),"[1]; 25 mg/kg s.c., day 5",3.3
same,number of negative responses (-f),"[1]; 25 mg/kg s.c., day 5",85.0
same,5HT level,serotonin (5HT); brainstem,792.5 ± 36.9 ng/g
same,TR5HT (turnover rate of 5HT),serotonin (5HT); brainstem,237.2 ng/g/h
same,5HT level,serotonin (5HT); teldiencephalon,457.9 ± 24.2 ng/g
same,TR5HT (turnover rate of 5HT),serotonin (5HT); teldiencephalon,53.9 ng/g/h
CC(N)Cc1ccccc1 (stereo not drawn) [amphetamine],rate of metabolism / O2 consumption,[2],dose-dependently increased
"Cc1nc2cnc3ccccc3c2s1.Cl [A compound, 2-methyl-thiazolo[4,5-c]quinoline-hydrochloride]","acquisition of conditioned reflex, number of positive responses (F)","[1]; 5 mg/kg s.c., day 1",17.8
same,number of intersignal reactions (IR),"[1]; 5 mg/kg s.c., day 1",9.5
same,number of negative responses (-f),"[1]; 5 mg/kg s.c., day 1",14.4
same,"acquisition of conditioned reflex, number of positive responses (F)","[1]; 5 mg/kg s.c., day 2",29.6
same,number of intersignal reactions (IR),"[1]; 5 mg/kg s.c., day 2",8.9
same,number of negative responses (-f),"[1]; 5 mg/kg s.c., day 2",23.0
same,"acquisition of conditioned reflex, number of positive responses (F)","[1]; 5 mg/kg s.c., day 3",24.3
same,number of intersignal reactions (IR),"[1]; 5 mg/kg s.c., day 3",3.2
same,number of negative responses (-f),"[1]; 5 mg/kg s.c., day 3",24.6
same,"acquisition of conditioned reflex, number of positive responses (F)","[1]; 5 mg/kg s.c., day 4",23.0
same,number of intersignal reactions (IR),"[1]; 5 mg/kg s.c., day 4",2.9
same,number of negative responses (-f),"[1]; 5 mg/kg s.c., day 4",25.4
same,"acquisition of conditioned reflex, number of positive responses (F)","[1]; 5 mg/kg s.c., day 5",29.4
same,number of intersignal reactions (IR),"[1]; 5 mg/kg s.c., day 5",2.3
same,number of negative responses (-f),"[1]; 5 mg/kg s.c., day 5",27.5
same,"acquisition of conditioned reflex, number of positive responses (F)","[1]; 10 mg/kg s.c., day 1",12.0
same,number of intersignal reactions (IR),"[1]; 10 mg/kg s.c., day 1",8.9
same,number of negative responses (-f),"[1]; 10 mg/kg s.c., day 1",70.4
same,"acquisition of conditioned reflex, number of positive responses (F)","[1]; 10 mg/kg s.c., day 2",14.7
same,number of intersignal reactions (IR),"[1]; 10 mg/kg s.c., day 2",7.3
same,number of negative responses (-f),"[1]; 10 mg/kg s.c., day 2",55.3
same,"acquisition of conditioned reflex, number of positive responses (F)","[1]; 10 mg/kg s.c., day 3",7.2
same,number of intersignal reactions (IR),"[1]; 10 mg/kg s.c., day 3",2.7
same,number of negative responses (-f),"[1]; 10 mg/kg s.c., day 3",58.2
same,"acquisition of conditioned reflex, number of positive responses (F)","[1]; 10 mg/kg s.c., day 4",5.5
same,number of intersignal reactions (IR),"[1]; 10 mg/kg s.c., day 4",2.1
same,number of negative responses (-f),"[1]; 10 mg/kg s.c., day 4",66.8
same,"acquisition of conditioned reflex, number of positive responses (F)","[1]; 10 mg/kg s.c., day 5",7.3
same,number of intersignal reactions (IR),"[1]; 10 mg/kg s.c., day 5",2.1
same,number of negative responses (-f),"[1]; 10 mg/kg s.c., day 5",68.2
same,"acquisition of conditioned reflex, number of positive responses (F)","[1]; 25 mg/kg s.c., day 1",7.0
same,number of intersignal reactions (IR),"[1]; 25 mg/kg s.c., day 1",10.7
same,number of negative responses (-f),"[1]; 25 mg/kg s.c., day 1",83.6
same,"acquisition of conditioned reflex, number of positive responses (F)","[1]; 25 mg/kg s.c., day 2",6.6
same,number of intersignal reactions (IR),"[1]; 25 mg/kg s.c., day 2",5.7
same,number of negative responses (-f),"[1]; 25 mg/kg s.c., day 2",85.1
same,"acquisition of conditioned reflex, number of positive responses (F)","[1]; 25 mg/kg s.c., day 3",2.6
same,number of intersignal reactions (IR),"[1]; 25 mg/kg s.c., day 3",4.4
same,number of negative responses (-f),"[1]; 25 mg/kg s.c., day 3",94.3
same,"acquisition of conditioned reflex, number of positive responses (F)","[1]; 25 mg/kg s.c., day 4",1.6
same,number of intersignal reactions (IR),"[1]; 25 mg/kg s.c., day 4",3.8
same,number of negative responses (-f),"[1]; 25 mg/kg s.c., day 4",93.8
same,"acquisition of conditioned reflex, number of positive responses (F)","[1]; 25 mg/kg s.c., day 5",3.1
same,number of intersignal reactions (IR),"[1]; 25 mg/kg s.c., day 5",4.2
same,number of negative responses (-f),"[1]; 25 mg/kg s.c., day 5",95.0
same,motility (spontaneous crossings of the gate),[3],slight motility decreasing effect
same,rate of metabolism / O2 consumption,[2],slightly

# — US4778811A, “Pharmaceutical compositions of 2-methyl-thiazolo[4,5-c]quinoline” (EGIS Gyogyszergyar, priority 1985, dated 1988)
